# Where “and” joins values, the source holds several entries; their conditions need not be identical. Equal values may be shown once. Marks after values point to notes of the source that are not given here.
# How the values were obtained:
# [1] = tested on: Staphylococcus aureus [ATCC 43300]; experiment: Burn Wound Infection Model in rats; type: in vivo
# E. coli [ATCC 25922] = experiment: Ascending Urinary Tract Infection Rat Model (kidneys, bladder); type: in vivo
# [2] = tested on: Neisseria gonorrhoea (ATCC700825); settings: in vivo, 50 mg/kg
# [3] = tested on: Neisseria gonorrhoea (ATCC700825); experiment: Mouse vaginal infection model; settings: mice; Meropenem IV bolus 50 mg/kg for seven days; p<0.05
# [4] = tested on: Influenza A virus (H1N1) Strain: A/NWS/33; experiment: Mouse influenza model (C57BL/6), body weights and lung viral titers; type: in vivo
# [5] = Meropenem 30 mg/kg single dose i.v. bolus
# [6] = Meropenem 30 mg/kg single dose i.v. bolus, individual animals
# [7] = Meropenem single IV bolus 30 mg/kg, E1 50 and 500 mg/kg i.v. 24 h infusion
compound,measurement,setting,value
Saframycin,bacterial load on day 4 compared to day 1,"[1]; E1, CE3 100 μl (19.15 mg/ml) topical 3 days, Saframycin 30 mg topical b.i.d 3 days",did not show significant efficacy on day 4 when compared to day 1
same,% wound contraction on Day 4 PI (Mean ± SD),"[1]; E1, CE3 100 μl (19.15 mg/ml) topical 3 days, Safromycin 30 mg topical b.i.d 3 days",2.48 ± 0.30%
same,wound reduction on day 4 compared to vehicle control,"[1]; E1, CE3 100 μl (19.15 mg/ml) topical 3 days, Safromycin 30 mg topical b.i.d 3 days, p<0.05",significant reduction wound on day 4
same,Bacterial Load on skin post treatment Day 1 PI,"[1]; Mean ± SD, E1, CE3 100 μl (19.15 mg/ml) topical u.i.d 3 days, Safromycin 30 mg topical b.i.d 3 days, Day 1 PI",5.84 ± 0.35 Logic CFU/Swab
same,Bacterial Load on skin post treatment Day 4 PI,"[1]; Mean ± SD, E1, CE3 100 μl (19.15 mg/ml) topical u.i.d 3 days, Safromycin 30 mg topical b.i.d 3 days, Day 4 PI",4.87 ± 0.63 Logic CFU/Swab
C[C@@H](O)[C@H]1C(=O)N2C(C(=O)O)=C(S[C@@H]3CN[C@H](C(=O)N(C)C)C3)[C@H](C)[C@H]12 [Meropenem],Mean Log10CFU/g Bladder change (wrt 4 h PI control: 6.54 Log10CFU/g Bladder),E. coli [ATCC 25922]; [5],−1.11 Log10CFU/g
same,Mean Log10CFU/g kidney change (wrt 4 h PI control: 4.73 Log10CFU/g kidneys),E. coli [ATCC 25922]; [5],−1.27 Log10CFU/g
same,Mean ± SD (Log10 CFU/g Bladder),E. coli [ATCC 25922]; [5],5.43 ± 0.36 Log10 CFU/g Bladder
same,Mean ± SD (Log10 CFU/g kidneys),E. coli [ATCC 25922]; [5],3.46 ± 0.19 Log10 CFU/g kidneys
same,Log10 CFU/g Bladder,E. coli [ATCC 25922]; [6],5.04 Log10 CFU/g and 5.24 Log10 CFU/g and 5.91 Log10 CFU/g and 5.25 Log10 CFU/g and 5.71 Log10 CFU/g
same,Log 10 CFU/g Kidneys Left kidney,E. coli [ATCC 25922]; [6],3.46 Log 10 CFU/g (2×) and 3.61 Log 10 CFU/g and 3.41 Log 10 CFU/g and 3.37 Log 10 CFU/g
same,Log 10 CFU/g Kidneys Right kidney,E. coli [ATCC 25922]; [6],3.36 Log 10 CFU/g and 3.69 Log 10 CFU/g and 3.80 Log 10 CFU/g and 3.16 Log 10 CFU/g and 3.31 Log 10 CFU/g
same,antibacterial activity in kidneys compared to vehicle control,E. coli [ATCC 25922]; [7],significant bactericidal activity in kidneys
same,antibacterial activity in the bladder compared to vehicle control,E. coli [ATCC 25922]; [7],significant bactericidal activity in the bladder
same,Clinical signs,[2],N
same,bactericidal activity in vaginal load compared to vehicle control,[3],significant bactericidal activity in vaginal load
NC(=O)c1ncn([C@@H]2O[C@H](CO)[C@@H](O)[C@H]2O)n1 [Ribavirin],body weights compared to vehicle control on day 4,"[4]; Ribavarin, E1 25, 50 and 100 mg/kg, CE3 100, 500 and 1000 mg/kg, p<0.05",significantly higher body weights
same,viral growth rate and viral load in the lungs compared to vehicle control,"[4]; Ribavirin 66 mg/kg IP, E1 25-100 mg/kg, CE3 100-1000 mg/kg iv bid",significantly reduced the viral growth rate and viral load in the lungs
same,viral titres compared to vehicle control on day 4,"[4]; Ribavirin, E1 25, 50 and 100 mg/kg, CE3 100, 500 and 1000 mg/kg, p<0.05",significantly lower viral titres
same,Body weights Mean,"[4]; mice infected with H1N1, Ribavarin 66 mg/kg i.p., Day 0",23.92 g
same,Body weights Mean,"[4]; mice infected with H1N1, Ribavarin 66 mg/kg i.p., Day 1",23.50 g
same,Body weights Mean,"[4]; mice infected with H1N1, Ribavarin 66 mg/kg i.p., Day 2",24.22 g
same,Body weights Mean (g),"[4]; mice infected with H1N1, Ribavarin 66 mg/kg i.p., Day 4",24.67* g
same,Body weights Mean,"[4]; mice infected with H1N1, Ribavarin 66 mg/kg i.p., Day 6",24.70 g
same,body weight through the study,"[4]; mice infected with H1N1, Ribavirin 66 mg/kg once daily IP",no significant decrease in body weight

# Reference: patent US20220401469A1, “PROCESS FOR PREPARATION OF BIOLOGICALLY ACTIVE COPOLYMER” (RECCE PHARMACEUTICALS LTD, priority 2020, published 2022)
